These are literature values, as cited in US5766627A, “Multivescular liposomes with controlled release of encapsulated biologically active substances” (priority 1997, dated 1998).

Each structure is given as a SMILES string.

For data set [1] the following is noted: free amikacin, background statement.
Data set [2] relates to strains of gram negative bacteria. The note with it: clinical, background statement.
Data set [3] has as its system strains of gram positive bacteria. The note with it: clinical, background statement.

For `NCC[C@H](O)C(=O)N[C@@H]1C[C@H](N)[C@@H](O[C@H]2O[C@H](CN)[C@@H](O)[C@H](O)[C@H]2O)[C@H](O)[C@H]1O[C@H]1O[C@H](CO)[C@@H](O)[C@H](N)[C@H]1O` [amikacin], the serum half-life entry in data set [1] is given as “two to three”. The “activity against gram negative bacteria” value in data set [2] was “clinically significant activity”. The “activity against gram positive bacteria” value in data set [3] was “clinically significant activity”.
